From the NIST ThermoML archive (doi:10.1021/acs.jced.7b00464)
Numbers after ± are expanded uncertainties.

Test: mn = molality of the nth substance listed, in mol/kg
Details: 101.3 kPa, Liquid; for speed of sound: Frequency=3 MHz, Single path-length method; for mass density: Vibrating tube method

With `CCCCn1cc[n+](C)c1.[Br-]` [1-butyl-3-methylimidazolium bromide] + O the speed of sound (293.15 K, m1 = 0.1009) was 1493.5 ± 1 m/s, the speed of sound (293.15 K, m1 = 0.2003) was 1503.6 ± 1.1 m/s and the speed of sound (293.15 K, m1 = 0.2985) was 1512.9 ± 1.1 m/s. The speed of sound (293.15 K, m1 = 0.4006) was 1522.6 ± 1.1 m/s, the mass density (293.15 K, m1 = 0.1009) was 1003.27 ± 0.31 kg/m3 and the mass density (293.15 K, m1 = 0.2003) was 1008.11 ± 0.31 kg/m3. For the same compound, the mass density (293.15 K, m1 = 0.2985) was 1012.68 ± 0.31 kg/m3, the mass density (293.15 K, m1 = 0.4006) was 1017.54 ± 0.31 kg/m3 and the speed of sound (298.15 K, m1 = 0.1009) was 1506.5 ± 1 m/s. For the same compound, the speed of sound (298.15 K, m1 = 0.2003) was 1515.8 ± 1.1 m/s, the speed of sound (298.15 K, m1 = 0.2985) was 1524.5 ± 1.1 m/s and the speed of sound (298.15 K, m1 = 0.4006) was 1533.1 ± 1.1 m/s. The mass density (298.15 K, m1 = 0.1009) was 1002.03 ± 0.31 kg/m3, the mass density (298.15 K, m1 = 0.2003) was 1006.83 ± 0.31 kg/m3 and the mass density (298.15 K, m1 = 0.2985) was 1011.33 ± 0.31 kg/m3. For the same compound, the mass density (298.15 K, m1 = 0.4006) was 1016.13 ± 0.31 kg/m3, the speed of sound (303.15 K, m1 = 0.1009) was 1517.9 ± 1 m/s and the speed of sound (303.15 K, m1 = 0.2003) was 1526.2 ± 1.1 m/s. It also gave a speed of sound (303.15 K, m1 = 0.2985) of 1534.1 ± 1.1 m/s, a speed of sound (303.15 K, m1 = 0.4006) of 1542 ± 1.1 m/s and a mass density (303.15 K, m1 = 0.1009) of 1000.58 ± 0.31 kg/m3. It also gave a mass density (303.15 K, m1 = 0.2003) of 1005.32 ± 0.31 kg/m3, a mass density (303.15 K, m1 = 0.2985) of 1009.77 ± 0.31 kg/m3 and a mass density (303.15 K, m1 = 0.4006) of 1014.5 ± 0.31 kg/m3. It also gave a speed of sound (308.15 K, m1 = 0.1009) of 1527.7 ± 1 m/s, a speed of sound (308.15 K, m1 = 0.2003) of 1535.2 ± 1.1 m/s and a speed of sound (308.15 K, m1 = 0.2985) of 1542.4 ± 1.1 m/s. It also gave a speed of sound (308.15 K, m1 = 0.4006) of 1549.4 ± 1.1 m/s, a mass density (308.15 K, m1 = 0.1009) of 998.918 ± 0.31 kg/m3 and a mass density (308.15 K, m1 = 0.2003) of 1003.62 ± 0.31 kg/m3. The mass density (308.15 K, m1 = 0.2985) was 1008 ± 0.31 kg/m3 and the mass density (308.15 K, m1 = 0.4006) was 1012.7 ± 0.31 kg/m3.
Compound `CCCCn1cc[n+](C)c1.[Cl-]` [1-butyl-3-methylimidazolium chloride] + O has a speed of sound (293.15 K, m1 = 0.101) of 1496.7 ± 1 m/s, a speed of sound (293.15 K, m1 = 0.1997) of 1510.4 ± 1.1 m/s and a speed of sound (293.15 K, m1 = 0.3007) of 1523.6 ± 1.1 m/s. For the same compound, the speed of sound (293.15 K, m1 = 0.4004) was 1536.1 ± 1.1 m/s, the mass density (293.15 K, m1 = 0.101) was 999.535 ± 0.3 kg/m3 and the mass density (293.15 K, m1 = 0.1997) was 1000.82 ± 0.3 kg/m3. For the same compound, the mass density (293.15 K, m1 = 0.3007) was 1002.1 ± 0.3 kg/m3, the mass density (293.15 K, m1 = 0.4004) was 1003.37 ± 0.3 kg/m3 and the speed of sound (298.15 K, m1 = 0.101) was 1509.8 ± 1 m/s. The speed of sound (298.15 K, m1 = 0.1997) was 1522.7 ± 1.1 m/s, the speed of sound (298.15 K, m1 = 0.3007) was 1534.7 ± 1.1 m/s and the speed of sound (298.15 K, m1 = 0.4004) was 1546.5 ± 1.1 m/s. The mass density (298.15 K, m1 = 0.101) was 998.308 ± 0.3 kg/m3, the mass density (298.15 K, m1 = 0.1997) was 999.565 ± 0.3 kg/m3 and the mass density (298.15 K, m1 = 0.3007) was 1000.79 ± 0.3 kg/m3. For the same compound, the mass density (298.15 K, m1 = 0.4004) was 1002 ± 0.3 kg/m3, the speed of sound (303.15 K, m1 = 0.101) was 1521.1 ± 1 m/s and the speed of sound (303.15 K, m1 = 0.1997) was 1533 ± 1.1 m/s. It also gave a speed of sound (303.15 K, m1 = 0.3007) of 1544.3 ± 1.1 m/s, a speed of sound (303.15 K, m1 = 0.4004) of 1555.3 ± 1.1 m/s and a mass density (303.15 K, m1 = 0.101) of 996.883 ± 0.3 kg/m3. It also gave a mass density (303.15 K, m1 = 0.1997) of 998.065 ± 0.3 kg/m3, a mass density (303.15 K, m1 = 0.3007) of 999.244 ± 0.3 kg/m3 and a mass density (303.15 K, m1 = 0.4004) of 1000.4 ± 0.3 kg/m3. It also gave a speed of sound (308.15 K, m1 = 0.101) of 1530.8 ± 1 m/s, a speed of sound (308.15 K, m1 = 0.1997) of 1542 ± 1 m/s and a speed of sound (308.15 K, m1 = 0.3007) of 1552.7 ± 1.1 m/s. For the same compound, the speed of sound (308.15 K, m1 = 0.4004) was 1562.6 ± 1.1 m/s, the mass density (308.15 K, m1 = 0.101) was 995.222 ± 0.3 kg/m3 and the mass density (308.15 K, m1 = 0.1997) was 996.342 ± 0.3 kg/m3. It also gave a mass density (308.15 K, m1 = 0.3007) of 997.484 ± 0.3 kg/m3 and a mass density (308.15 K, m1 = 0.4004) of 998.586 ± 0.3 kg/m3.
